Where “and” joins values, the source holds several entries; their conditions need not be identical. Equal values may be shown once.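 These data come from cells grown in 96-well plates and exposed to compound for 48 hours at five concentrations. The concentration for 50% growth inhibition is given as GI50. The concentration for full growth arrest is given as TGI.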 Where a SMILES comes first, the peptide text is derived from it. [ ]: non-standard residue; d: D form. The star is where a group is joined. ξ: configuration not given here. ξF = NC(Cc1ccccc1)C(=O)O; Cbz = O=C(OCc1ccccc1)*; Aib = CC(C)(N)C(=O)O
Assays:
Assay in all cases: NCI-60 cell line screen, 48 h
EKVX NSCLC = system: EKVX NSCLC
HS 578T breast = system: HS 578T breast
RPMI-8226 leukemia = system: RPMI-8226 leukemia
SNB-19 CNS = system: SNB-19 CNS
DU-145 prostate = system: DU-145 prostate
COLO 205 colon = system: COLO 205 colon
HCT-15 colon = system: HCT-15 colon
HOP-92 NSCLC = system: HOP-92 NSCLC
NCI/ADR-RES ovarian = system: NCI/ADR-RES ovarian
MDA-MB-435 = system: MDA-MB-435

Row | Compound | TGI (EKVX NSCLC) [µM] | TGI (HS 578T breast) [µM] | TGI (RPMI-8226 leukemia) [µM] | TGI (SNB-19 CNS) [µM] | TGI (DU-145 prostate) | TGI (COLO 205 colon) [µM] | TGI (HCT-15 colon) | TGI (HOP-92 NSCLC) | TGI (NCI/ADR-RES ovarian) [µM] | GI50 (EKVX NSCLC) [µM] | GI50 (HS 578T breast) [µM] | GI50 (SNB-19 CNS) [µM] | GI50 (COLO 205 colon) | GI50 (HCT-15 colon) [µM] | GI50 (NCI/ADR-RES ovarian) [µM] | GI50 (MDA-MB-435) [µM] | TGI (MDA-MB-435) [µM] | GI50 (RPMI-8226 leukemia) [µM] | GI50 (HOP-92 NSCLC) [µM]
1 | CCN(CC)Cc1nc2sc3c(c2c(=O)n1-c1ccccc1)CCCC3 | 79.9 | 93.6 | 81.9 | > 100 | 47.8 µM | 43.6 | 51.7 µM | 51.4 µM | 62.1 | – | – | – | – | – | – | – | – | – | –
2 | COc1cc(OC)c2c(O)cc(CC(C)O)cc2c1 (stereo not given) | > 100 | – | > 100 | > 100 | – | > 100 | > 100 µM | > 100 µM | – | – | – | – | – | – | – | – | – | – | –
3 | O=C(CSc1nc2ccccc2[nH]1)Nc1ccc(-c2nc3ccccc3s2)c(Cl)c1 | > 100 | > 100 | – | 65.8 | – | 51.4 | > 100 µM | – | > 100 | 6.82 | 4.5 | 5.44 | 4.16 µM | 23.8 | 4.41 | 3.89 | > 100 | – | –
4 | CN(C)C(=S)N/N=C\C=N/NC(=S)N(C)C | > 100 | > 23.4 | > 100 | > 100 | > 40.7 µM | > 100 | > 100 µM | > 100 µM | – | – | – | – | – | – | – | – | > 100 | – | –
5 | Cc1ccc(C(=O)N(C2CCCCC2)C2CCCCC2)cc1N=NN(C)C | 32.3 | 43.9 | > 100 | 26.4 | – | 33.6 | 27.1 µM | 23.4 µM | 47.8 | – | – | – | – | – | – | – | 30 | – | –
6 | O=C(c1ccc(Cl)cc1)c1ccc(OCC(=O)N2CCN(c3ccccc3)CC2)cc1 | > 100 | – | > 100 | > 100 | – | > 100 | > 100 µM | > 100 µM | – | – | – | – | – | – | – | – | – | – | –
7 | Oc1ccc(/C=C\c2nnc(/C=C\c3ccc(O)c(O)c3)s2)cc1O | > 54.6 | 28.7 | – | 23.2 | 18.8 µM | 22.5 | 16.9 µM | 29.6 µM | > 59.2 | – | – | – | – | – | – | – | 15.1 | – | –
8 | Cc1ccc2c(=O)cc(-c3csc4ccccc34)[nH]c2n1 | – | – | 15 | 15.3 | 1.09 µM | 0.756 | 13.4 µM | > 81 µM | 0.569 | – | – | – | – | – | – | – | < 0.01 | – | –
9 | CC1(C)OC2OC(COC(=O)C=[N+]=[N-])C3OC(C)(C)OC3C2O1 (stereo not given) | > 100 | – | > 100 | > 100 | > 100 µM | > 100 | > 100 µM | > 100 µM | – | – | – | – | – | – | – | – | > 100 | – | –
10 | C=CC(=O)N1C/C(=C\c2ccc(N(C)C)cc2)C(=O)/C(=C/c2ccc(N(C)C)cc2)C1 | > 100 | > 100 | – | > 100 | > 100 µM | > 100 | > 100 µM | > 100 µM | > 100 | – | – | – | – | – | – | – | > 100 | – | –
11 | Cc1ccc(N=Nc2c(C)nn(C(=O)CC(=O)Nc3ccccc3)c2C)cc1C | > 100 | > 100 | > 100 | – | > 100 µM | > 100 | > 100 µM | > 100 µM | > 100 | – | – | – | – | – | – | – | > 100 | – | –
12 | CCCCOC(=O)CNC(=O)OCCCCC#CC#CCCCCOC(=O)NCC(=O)OCCCC | > 100 | – | > 100 | > 100 | – | > 100 | – | – | – | – | – | – | – | – | – | – | – | – | –
13 | COc1ccc2c(c1)O[C@@H]1C(O)Oc3cc(OC)c(OC)cc3[C@]1(O)C2=O (stereo not given in full) | > 100 | > 100 | > 100 | > 100 | > 100 µM | > 100 | > 100 µM | – | > 100 | – | – | – | – | – | – | – | > 100 | – | –
14 | COc1cc(-c2nc3cc(F)ccc3s2)ccc1O | 53.5 | – | > 100 | > 100 | > 100 µM | > 100 | > 100 µM | – | > 100 | – | – | – | – | – | – | – | > 100 | – | –
15 | CC(=O)OC[C@H]1O[C@@H](O[C@H]2[C@H](OC(C)=O)C=CO[C@@H]2COC(C)=O)C(OC(C)=O)[C@H]2OC(C)(C)O[C@H]21 (stereo not given in full) | > 100 | > 100 | – | > 100 | – | > 100 | > 100 µM | > 100 µM | > 100 | – | – | – | – | – | – | – | > 100 | – | –
16 | COc1ccc(N(C(=O)Nc2ccc(Cl)c(Cl)c2)c2ccccc2)cc1 | > 10 | > 10 | – | > 10 | > 10 µM | > 10 | > 10 µM | > 10 µM | > 10 | – | – | – | – | – | – | – | > 10 | – | –
17 | CC(C)C[C@H](NC(=O)[C@H](Cc1cccc2ccccc12)NC(=O)N1CCOCC1)B(O)O | 0.159 | – | 0.00618 | > 100 | 0.116 µM and < 0.0249 µM | – | 0.303 µM and 1.76 µM | 0.00322 µM and < 0.0122 µM | – | 0.00928 | – | – | 0.00482 µM and 0.015 µM | 0.0363 | 0.267 | 0.000136 | 0.000308 | 0.000359 | 0.000654
18 | COC(=O)C12Oc3ccc(-c4ccc5c(c4O)C(=O)C4=CCC(C)C(O)C4(C(=O)OC)O5)c(O)c3C(=O)C1=CCC(C)C2O (stereo not given) | 4.97 | – | – | – | – | 2.75 | 3.46 µM | 3.21 µM | – | – | – | – | – | – | – | – | – | – | –
19 | COc1ccc(N[C@H](CS(=O)c2ccc(C)cc2)c2ccc(F)cc2)cc1 (stereo not given in full) | > 100 | – | > 100 | > 100 | > 100 µM | > 100 | > 100 µM | – | > 100 | – | – | – | – | – | – | – | > 100 | – | –
20 | CCCCCc1cc(OC(=O)c2c(O)cc(OC)cc2CCCCC)cc(O)c1C(=O)O | 39.9 | – | 71.2 | 25.5 | – | 34.5 | 30.7 µM | 31 µM | – | – | – | – | – | – | – | – | – | – | –
21 | O=[N+]([O-])c1cccc(-c2csc(N=Nc3c(O)[nH]c4ccccc34)n2)c1 | 61.8 | 45.7 | – | 82.2 | 65.9 µM | > 100 | 54.4 µM | 46.5 µM | 29.6 | – | – | – | – | – | – | – | > 100 | – | –
22 | CCCCOC(=O)C(=O)C(CCC(=O)c1ccc(C)cc1)C(=O)C=C(C)C (stereo not given) | > 100 | > 100 | > 100 | > 100 | – | – | > 100 µM | > 100 µM | > 100 | – | – | – | – | – | – | – | > 100 | – | –
23 | CC(C)(NC(=O)OCc1ccccc1)C(=O)NC(Cc1ccccc1)C(=O)O (stereo not given) (Cbz-[Aib]-[ξF]-OH) | – | > 100 | > 100 | > 100 | > 100 µM | > 100 | > 100 µM | > 100 µM | > 100 | – | – | – | – | – | – | – | > 100 | – | –
24 | COC(=O)CCCc1ccc2c(c1)CC1(C2)Cc2cc3c(cc2C1)CCCC3 | > 100 | 90.9 | 85.2 | – | – | 53 | 89.3 µM | 85.1 µM | > 100 | – | – | – | – | – | – | – | 40.3 | – | –
